For one test, the system named is amyloglucosidase. The conditions noted are these: cited from earlier work.
Another test has as its system glucosidase I. The conditions noted are these: cited from earlier work.
Test [1] addresses T1, α-mannosidase (jack bean) (Canavalia ensiformis, UniProt C0HJB3).
T1 construct: purchased Sigma Chemical Co
T1 sequence (C0HJB3 1-562 limits assumed): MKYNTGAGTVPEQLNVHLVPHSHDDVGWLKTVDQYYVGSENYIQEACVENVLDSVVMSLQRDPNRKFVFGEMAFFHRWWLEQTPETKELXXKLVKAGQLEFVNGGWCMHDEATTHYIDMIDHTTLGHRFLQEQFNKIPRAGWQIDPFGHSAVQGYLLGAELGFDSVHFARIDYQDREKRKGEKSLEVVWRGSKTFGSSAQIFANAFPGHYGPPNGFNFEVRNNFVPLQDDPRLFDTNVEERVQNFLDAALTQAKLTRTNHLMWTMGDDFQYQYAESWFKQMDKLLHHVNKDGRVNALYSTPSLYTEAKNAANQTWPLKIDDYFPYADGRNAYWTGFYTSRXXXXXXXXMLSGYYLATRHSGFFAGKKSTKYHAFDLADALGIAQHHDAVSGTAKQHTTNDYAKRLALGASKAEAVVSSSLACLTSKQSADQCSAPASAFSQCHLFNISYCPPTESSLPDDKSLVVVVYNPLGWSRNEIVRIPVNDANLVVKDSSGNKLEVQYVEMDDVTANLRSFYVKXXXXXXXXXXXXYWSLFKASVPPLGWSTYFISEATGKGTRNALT
T1 sequence (C0HJB3 563-981 limits assumed): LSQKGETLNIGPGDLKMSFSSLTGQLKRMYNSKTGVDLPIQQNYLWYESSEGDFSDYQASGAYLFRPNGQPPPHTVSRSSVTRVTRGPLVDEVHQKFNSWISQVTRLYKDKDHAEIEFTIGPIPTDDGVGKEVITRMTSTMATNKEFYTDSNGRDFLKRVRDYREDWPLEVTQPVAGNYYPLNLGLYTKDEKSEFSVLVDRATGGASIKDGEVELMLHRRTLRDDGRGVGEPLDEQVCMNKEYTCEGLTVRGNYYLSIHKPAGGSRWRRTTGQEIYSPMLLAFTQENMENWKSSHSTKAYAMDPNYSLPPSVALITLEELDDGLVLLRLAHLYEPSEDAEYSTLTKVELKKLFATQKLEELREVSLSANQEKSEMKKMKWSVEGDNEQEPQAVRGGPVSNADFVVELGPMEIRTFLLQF
As to the kind of experiment: inhibition of α-mannosidase (jack bean), colorimetric release of p-nitrophenol from p-nitrophenyl α-D-mannopyranoside. It counts as biochemical. The conditions noted are these: initial screening.
Protocol: The enzyme α-mannosidase (from jack bean) and the corresponding p-nitrophenyl α-D-mannopyranoside substrate was obtained from Sigma Chemical Co. Enzyme inhibition was assayed colorimetrically by monitoring the release of p-nitrophenol from p-nitrophenyl α-D-mannopyranoside according to the procedure described by Tropea, et. al. (Tropea, J. E., et al, Biochemistry, Vol. 28, pp. 2027-2034 (1989)).

For test [2], the system named is mannosidases including the glycoprotein processing enzyme mannosidase II. The conditions noted are these: many mannosidases including mannosidase II; cited from earlier work.
The next test concerns HIV. The conditions noted are these: cited from earlier work.

SMILES strings stand for the structures.

Turning to `OCC1C(O)C(O)C2C(O)CCN12` (stereo not shown) [compound 3], the inhibition of amyloglucosidase result in the test with amyloglucosidase is listed as “good inhibitors”. Moreover, in the test on glucosidase I, the “inhibition of glucosidase I” value is recorded as “good inhibitors”.

`OC[C@@H]1[C@@H](O)[C@@H](O)[C@H]2[C@H](O)CCCN21` [(VII), (1S,2R,3R,8R,8aR)-3-(Hydroxymethyl)-1,2,8-trihydroxyindolizidine]: in test [1], the IC50 was determined as 1.2 µM. The same measure, in the same setting: in the case of `OC[C@H]1[C@@H](O)[C@@H](O)[C@H]2[C@H](O)CCCN21` [(VIII), (1S,2R,3S,8R,8aR)-3-(Hydroxymethyl)-1,2,8-trihydroxyindolizidine] it was 45 µM. As for `O[C@H]1[C@H]2[C@H](O)CCCN2C[C@H]1O` [swainsonine, (-)-swainsonine], in test [2], the inhibition of mannosidases entry was “potent inhibitor”. Regarding `OCC1C(O)C(O)C2C(O)CCN12` (stereo not shown) [compound 1], in the test with amyloglucosidase, the inhibition of amyloglucosidase entry is given as “good inhibitors”. Also, the “inhibition of glucosidase I” value with glucosidase I was “good inhibitors”.

As for `OCC1C(O)C(O)C2C(O)CCN12` (stereo not shown) [compound 4], the inhibition of amyloglucosidase entry in the test on amyloglucosidase is “good inhibitors”. Further, the “inhibition of glucosidase I” value in the test with glucosidase I is on record as “good inhibitors”. In the test with HIV, the anti-HIV activity result is on record as “shows anti-HIV activity”.

One may read the IC50 as the concentration that gives 50% inhibition. Low values mean higher potency, high ones lower potency.

(Values after patent US6262065A (priority 1998, dated 2001).)
